From patent publication US20080113956A1, “Substituted Porphyrins” (priority 1997, published 2008)
One block for each molecule: values may come before it.

Legend:
rat brain homogenates = assay: Iron/ascorbate mediated lipid peroxidation of rat brain homogenates (TBARS); format: biochemical; conditions: for IC50: rat brain homogenate, 30 minutes incubation with iron and ascorbate, TBARS
Method: Frozen adult Sprague-Dawley rat brains (Pel-Freez, Rogers, Ark.) were homogenized with a polytron (Turrax T25, Germany) in 5 volumes of ice cold 50 mM potassium phosphate at pH 7.4. Homogenate protein concentration was determined with the Coomassie Plus protein assay (Pierce, Rockford, Ill.) using bovine serum albumin as a standard. The homogenate volume was adjusted with buffer to give a final protein concentration of 10 mg/ml and frozen as aliquots at […].
Rat brain homogenates (2 mg protein) were incubated with varying concentrations of antioxidant at 37° C. for 15 minutes. Oxidation of the rat brain homogenate was initiated by the addition of 0.1 ml of a freshly prepared anaerobic stock solution containing iron(II) chloride (0.25 mM) and ascorbate (1 mM) as previously reported (Braughler et al, J. Biol. Chem. 262:10438 (1987)). Samples (final volume 1 ml) were placed in a shaking water bath at 37° C. for 30 minutes. The reactions were stopped by the addition of 0.1 ml of a stock butylated hydroxytoluene (60 mM) solution in ethanol.
The concentration of thiobarbituric acid reactive species (TBARS) in rat brain homogenates was used as a index of lipid peroxidation (Bernhem et al, J. Biol. Chem. 174:257 (1948); Witz et al, J. Free Rad. Biol. Med. 2:33 (1986); Kikugawa et al, Anal. Biochem. 202:249 (1992); Jentzsch et al, Free Rad. Biol. Med. 20P251 (1996)). Malondialdehyde standards were obtained by adding 8.2 μl of 1,1,3,3-tetramethoxypropane in 10 ml of 0.01 M HCl and mixing for 10 minutes at room temperature. This stock was further diluted in water to give standards that ranged from 0.25 to 25 μM. Samples or standards (200 μl) were acidified with 200 μl of 0.2 M phosphoric acid in 1.5 ml locking microfuge tubes. The color reaction was initiated by the addition of 25 μl of a 0.11M thiobarbituric acid solution and samples were placed in a 90° C. heating block for 45 minutes. TBARS were extracted with 0.5 ml of n-butanol by vortexing samples for 3 minute and chilling on ice for 1 minute. The samples were then centrifuged at 12,000×g for 3 minutes, 150 μl aliquots of the n-butanol phase were placed in each well of a 96-well plate and read at 535 nm in a Thermomax platereader (Molecular Devices, Sunnyvale, Calif.) at 25° C. Sample absorbencies were converted to MDA equivalencies (μM) by extrapolation from the MDA standard curve. None of the antioxidants at concentrations employed in these studies affected the reaction of MDA standards with thiobarbituric acid and reactions without TBA were used as subtraction blanks.
Data were presented as their means ±SE. The inhibitory concentration of antioxidants that decreased the degree of lipid peroxidation by 50% (IC50) and respective 95% confidence intervals (CI) were determined by fitting a sigmoidal curve with variable slope to the data (GraphPad Prizm, San Diego, Calif.).

[1] = Electrochemistry: metal-centered redox potential; format: physicochemical; conditions: metal centered, vs NHE, pH 7.8 if not otherwise specified
Method: Electrochemistry. The electrochemical characterization was performed as described previously on a Voltammetric Analyzer Model 600 (CH instrument) using a glassy carbon electrode (Ag/AgCl reference and Pt auxiliary electrodes), at 0.5 mM porphyrin, pH 7.8 (0.05 M phosphate buffer), 0.1 M NaCl. The potentials were standardized against potassium ferricyanide/potassium ferrocyanide couple (Batinic-Haberle et al, Arch. Biochem. Biophys. 343:225 (1997); Kolthof et al, J. Phys. Chem. 39:945 (1974)).
Electrochemistry. The metal-centered redox behavior of all metalloporphyrin products was reversible. The half-wave potentials (E^O1/2) were calculated as the average of the cathodic and anodic peaks and are given in mV vs NHE (Table 5). The average shift per chlorine is +55 mV (Table 5), which is in agreement with the values previously reported for H2TPP derivatives (between −50 and +70 mV) (Sen et al, Chem. Soc. Faraday Trans. 93:4281 (1997); Autret et al. J. Chem. Soc. Dalton Trans. 2793 (1996); Hariprasad et al, J. Chem. Soc. Dalton Trans. 3429 (1996); Tagliatesta et al, Inorg. Chem. 35:5570 (1996); Ghosh, J. Am. Chem. Soc. 117:4691 (1995); Takeuchi et al, J. Am. Chem. Soc. 116:9730 (1994); Binstead et al, Inorg. Chem. 30:1259 (1991); Giraudeau et al, J. Am. Chem. Soc. 101:3857 (1979)). This shift appears to be higher (˜+65 mV) between 0 and 1, and between 2 and 3 chlorines (Table 5). […] The manganese redox state of MnCl4TE-2-PyP^5 (E^O1/2=+448 mV) and MnOBTMPyP^4+ (E^O1.2=+480 mV) is 3+ and 2+, respectively. This difference may be explained by their difference in terms of redox potential (˜30 mV) but also by structural considerations, for instance an increased distortion of the porphyrin ring in the case of MnOBTMPyP^4+. (Batinic-Haberle et al, Arch. Biochem. Biophys. 343:225 (1997); Ochsenbein et al, Angew. Chem. Int. Ed. Engl. 33:348 (1994)).

[2] = SOD activity in U/mg (reduction of cytochrome c or photoreduction of NBT); format: biochemical; conditions: unit = amount that inhibits one half the reduction of cytochrome c or photoreduction of NBT
[3] = vs NHE; literature comparators; cited from earlier work
[4] = cited from earlier work; for kcat of comparison compounds: literature comparators

Molecule: O=C(O)c1ccc(-c2c3nc(c(-c4ccc(C(=O)O)cc4)c4ccc([nH]4)c(-c4ccc(C(=O)O)cc4)c4nc(c(-c5ccc(C(=O)O)cc5)c5ccc2[nH]5)C=C4)C=C3)cc1.[Fe+3] [FeTBAP, Ferric 5,10,15,20-tetrakis(4-benzoic acid) porphyrin]
IC50 (rat brain homogenates): 212 µM
Redox Potential (E1/2) [1]: +0.01 V
SOD [2]: 24 U/mg

Molecule: C[n+]1ccccc1-c1c2nc(c(-c3cccc[n+]3C)c3ccc([nH]3)c(-c3cccc[n+]3C)c3nc(c(-c4cccc[n+]4C)c4ccc1[nH]4)C=C3)C=C2.[Zn+2] [ZnTM-2-PyP]
IC50 (rat brain homogenates): 591 µM
SOD [2]: trace

Molecule: MnTBAP
IC50 (rat brain homogenates): 29 µM
Redox Potential (E1/2) [1]: −0.19 V
SOD [2]: 179 U/mg

Molecule: CuZnSOD: dimeric copper- and zinc-containing superoxide dismutase enzyme; bovine in Example VIII
IC50 (rat brain homogenates): 15 µM
E°1/2 half-wave potential of comparison compounds [3]: +260 mV
Redox Potential (E1/2) [1]: +0.35 V
SOD [2]: 5,100 U/mg
kcat of comparison compounds [4]: 200 10^7 M^−1 s^−1
kcat per active site ([4]; per active site): 10^9 M^−1s^−1

B1: catalase: enzymatic antioxidant (protein, UniProt P04040 2-527, looked up)
Catalase: ADSRDPASDQMQHWKEQRAAQKADVLTTGAGNPVGDKLNVITVGPRGPLLVQDVVFTDEMAHFDRERIPERVVHAKGAGAFGYFEVTHDITKYSKAKVFEHIGKKTPIAVRFSTVAGESGSADTVRDPRGFAVKFYTEDGNWDLVGNNTPIFFIRDPILFPSFIHSQKRNPQTHLKDPDMVWDFWSLRPESLHQVSFLFSDRGIPDGHRHMNGYGSHTFKLVNANGEAVYCKFHYKTDQGIKNLSVEDAARLSQEDPDYGIRDLFNAIATGKYPSWTFYIQVMTFNQAETFPFNPFDLTKVWPHKDYPLIPVGKLVLNRNPVNYFAEVEQIAFDPSNMPPGIEASPDKMLQGRLFAYPDTHRHRLGPNYLHIPVNCPYRARVANYQRDGPMCMQDNQGGAPNYYPNSFGAPEQQPSALEHSIQYSGEVRRFNTANDDNVTQVRAFYVNVLNEEQRKRLCENIAGHLKDAQIFIQKKAVKNFTEVHPDYGSHIQALLDKYNAEKPKNAIHTFVQSGSHLAAREKANL
inhibition of iron/ascorbate-initiated lipid peroxidation (rat brain homogenates; up to concentrations of 1 mg/ml): did not inhibit

Second part, led by results:

IC50 (rat brain homogenates): 204 µM
Molecule: Cc1c(C)c2c(c(C)c1O)CCC(C)(C(=O)O)O2 (centres unmarked) [Trolox]

IC50 (rat brain homogenates): 1.3 µM
Redox Potential (E1/2) [1]: +0.48 V
Molecule: C[n+]1ccc(-c2c3nc(c(-c4cc[n+](C)cc4)c4[n-]c(c(Br)c4Br)c(-c4cc[n+](C)cc4)c4nc(c(-c5cc[n+](C)cc5)c5[n-]c2c(Br)c5Br)C(Br)=C4Br)C(Br)=C3Br)cc1.[Mn+3] [MnOBTM-4-PyP, Manganese β-octabromo-meso-tetrakis-(N-methylpyridinium-4-yl)porphyrin]
E°1/2 half-wave potential of comparison compounds [3]: +480 mV
SOD [2]: 18,460 U/mg
kcat of comparison compounds [4]: 22 10^7 M^−1 s^−1

IC50 (rat brain homogenates): 241 µM
Molecule: C[n+]1ccc(-c2c3nc(c(-c4cc[n+](C)cc4)c4ccc([nH]4)c(-c4cc[n+](C)cc4)c4nc(c(-c5cc[n+](C)cc5)c5ccc2[nH]5)C=C4)C=C3)cc1.[Zn+2] [ZnTM-4-PyP]
SOD [2]: trace
